Source: patent US9321773B2, “Compounds” (Respivert Ltd, priority 2009, dated 2016)
Blank lines part the entries; values can stand above or below the compound they belong to.

Columns and labels:
recombinant PI3 kinase α = recombinant PI3 kinase α (Homo sapiens (Human), UniProt P42336); experiment: Enzyme Inhibition Assay (HTRF PI3K enzyme assay, TR-FRET); format: biochemical; conditions: activity range; read-out: PI3 Kinase Inhibition IC50 values at stated Isozyme α
Outline: (§1)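 TR-FRET readout after 15-18 hr at RT with biotinylated PIP3, GST-tagged GRP1 PH domain and europium/APC fluorophores; product PIP3 displaces the tracer and lowers the signal. Beforehand, compound and PIP2 were reacted for 2 hr at RT with human recombinant PI3Kα, δ or γ.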

recombinant PI3 kinase γ = recombinant PI3 kinase γ (Homo sapiens (Human), UniProt P48736); experiment: as above; format: biochemical; conditions: activity range; read-out: PI3 Kinase Inhibition IC50 values at stated Isozyme γ
Chain of recombinant PI3 kinase γ (P48736 whole entry): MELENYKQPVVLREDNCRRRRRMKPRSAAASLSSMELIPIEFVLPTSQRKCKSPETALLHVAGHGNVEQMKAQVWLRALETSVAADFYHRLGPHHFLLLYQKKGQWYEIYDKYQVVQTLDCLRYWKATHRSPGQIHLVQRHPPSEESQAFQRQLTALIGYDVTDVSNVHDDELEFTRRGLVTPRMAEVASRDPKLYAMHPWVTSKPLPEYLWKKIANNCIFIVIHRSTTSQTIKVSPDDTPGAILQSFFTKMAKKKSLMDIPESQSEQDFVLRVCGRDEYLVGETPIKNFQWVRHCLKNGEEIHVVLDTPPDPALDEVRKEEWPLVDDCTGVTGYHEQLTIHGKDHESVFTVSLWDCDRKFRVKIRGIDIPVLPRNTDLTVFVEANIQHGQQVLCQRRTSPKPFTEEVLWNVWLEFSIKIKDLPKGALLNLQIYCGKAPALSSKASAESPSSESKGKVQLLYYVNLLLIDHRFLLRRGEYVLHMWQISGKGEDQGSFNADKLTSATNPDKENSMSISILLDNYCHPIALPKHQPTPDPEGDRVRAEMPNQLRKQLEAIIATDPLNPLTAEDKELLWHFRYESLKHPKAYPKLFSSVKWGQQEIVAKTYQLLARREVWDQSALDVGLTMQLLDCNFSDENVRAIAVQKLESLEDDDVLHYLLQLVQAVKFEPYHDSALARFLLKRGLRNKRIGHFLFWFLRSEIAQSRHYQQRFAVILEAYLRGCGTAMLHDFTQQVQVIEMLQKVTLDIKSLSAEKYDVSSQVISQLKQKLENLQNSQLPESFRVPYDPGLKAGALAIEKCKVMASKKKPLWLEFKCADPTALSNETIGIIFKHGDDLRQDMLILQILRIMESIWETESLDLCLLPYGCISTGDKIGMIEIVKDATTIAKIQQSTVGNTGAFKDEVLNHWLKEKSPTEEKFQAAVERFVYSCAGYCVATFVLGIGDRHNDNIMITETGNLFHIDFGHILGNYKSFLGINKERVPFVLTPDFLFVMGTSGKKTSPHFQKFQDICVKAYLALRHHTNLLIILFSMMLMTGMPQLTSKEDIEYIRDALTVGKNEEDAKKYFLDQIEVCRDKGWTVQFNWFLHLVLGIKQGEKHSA
Outline: as §1

recombinant PI3 kinase δ = recombinant PI3 kinase δ (Homo sapiens (Human), UniProt O00329); experiment: as above; format: biochemical; conditions: activity range; read-out: PI3 Kinase Inhibition IC50 values at stated Isozyme δ
Chain of recombinant PI3 kinase δ (O00329 whole entry): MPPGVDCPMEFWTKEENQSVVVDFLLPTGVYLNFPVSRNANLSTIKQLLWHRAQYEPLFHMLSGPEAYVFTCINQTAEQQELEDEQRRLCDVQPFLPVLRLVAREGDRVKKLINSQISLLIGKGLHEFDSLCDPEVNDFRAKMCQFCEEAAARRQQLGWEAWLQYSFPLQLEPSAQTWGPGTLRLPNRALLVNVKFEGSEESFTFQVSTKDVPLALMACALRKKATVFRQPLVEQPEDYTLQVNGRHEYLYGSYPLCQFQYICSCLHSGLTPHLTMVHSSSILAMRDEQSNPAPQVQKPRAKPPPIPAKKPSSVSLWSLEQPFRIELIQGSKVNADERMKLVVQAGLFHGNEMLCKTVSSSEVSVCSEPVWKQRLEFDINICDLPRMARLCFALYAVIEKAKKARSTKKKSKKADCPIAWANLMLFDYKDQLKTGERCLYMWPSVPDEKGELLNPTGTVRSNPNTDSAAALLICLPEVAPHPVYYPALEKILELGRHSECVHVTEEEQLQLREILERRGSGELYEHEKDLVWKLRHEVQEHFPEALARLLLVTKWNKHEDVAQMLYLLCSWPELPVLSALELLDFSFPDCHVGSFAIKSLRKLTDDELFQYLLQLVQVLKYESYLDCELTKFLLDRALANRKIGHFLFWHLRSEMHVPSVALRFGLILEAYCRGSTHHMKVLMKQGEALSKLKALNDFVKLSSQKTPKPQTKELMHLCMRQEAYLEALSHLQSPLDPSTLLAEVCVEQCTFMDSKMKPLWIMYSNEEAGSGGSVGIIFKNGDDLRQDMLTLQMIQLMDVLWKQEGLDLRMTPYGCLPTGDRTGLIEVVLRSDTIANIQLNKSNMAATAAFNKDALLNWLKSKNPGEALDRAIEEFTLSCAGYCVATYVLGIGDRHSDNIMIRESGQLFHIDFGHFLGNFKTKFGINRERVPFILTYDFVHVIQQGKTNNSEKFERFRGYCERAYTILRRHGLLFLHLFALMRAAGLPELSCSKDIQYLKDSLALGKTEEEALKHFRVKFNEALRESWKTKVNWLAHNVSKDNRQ
Chain of recombinant PI3 kinase δ (P27986 whole entry partner): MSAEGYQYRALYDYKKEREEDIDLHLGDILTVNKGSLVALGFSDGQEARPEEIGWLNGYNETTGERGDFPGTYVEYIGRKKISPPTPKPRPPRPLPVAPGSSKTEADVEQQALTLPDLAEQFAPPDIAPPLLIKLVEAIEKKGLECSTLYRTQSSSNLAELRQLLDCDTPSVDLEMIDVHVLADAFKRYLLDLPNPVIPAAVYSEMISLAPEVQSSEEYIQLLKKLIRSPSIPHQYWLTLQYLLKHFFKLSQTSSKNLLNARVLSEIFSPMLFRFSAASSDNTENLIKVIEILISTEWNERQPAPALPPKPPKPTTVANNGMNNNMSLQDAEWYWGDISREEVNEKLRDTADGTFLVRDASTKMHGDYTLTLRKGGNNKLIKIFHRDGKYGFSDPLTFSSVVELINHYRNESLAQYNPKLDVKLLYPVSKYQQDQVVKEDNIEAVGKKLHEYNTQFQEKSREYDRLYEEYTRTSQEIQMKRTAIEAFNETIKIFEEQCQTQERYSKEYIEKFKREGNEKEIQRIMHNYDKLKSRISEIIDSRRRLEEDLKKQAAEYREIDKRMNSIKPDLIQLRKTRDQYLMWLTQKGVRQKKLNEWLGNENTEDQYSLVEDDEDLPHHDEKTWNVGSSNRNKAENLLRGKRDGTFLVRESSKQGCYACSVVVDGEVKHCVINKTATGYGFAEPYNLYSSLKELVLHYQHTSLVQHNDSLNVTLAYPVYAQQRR
Outline: as §1

[1] = system: H2O2 induced pAkt in D-U937 cells; experiment: PI3Kδ Cell Based Assay (H2O2 induced pAkt); conditions: Homo sapiens, dU937; activity range; D-U937 cells; read-out: Cellular Activity IC50 values (H2O2 induced pAkt D-U937 Cells)
Outline: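 Read-out is the pAkt/total Akt signal ratio, measured with anti-pAkt and anti-pan-Akt antibodies after H2O2 stimulation. Cells were U937 monocytes given PMA (100 ng/mL) for 48 to 72 hr. IC50 values fitted from compound serial dilutions.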

[2] = system: PMA-differentiated U937 cells; experiment: MTT Assay (cell viability); format: cell-based, Human; conditions: percentage loss of cell viability; for Cell Viability MTT Assay in D-U937 cells at 4 hr: 4 hr in 5% FCS; for Cell Viability MTT Assay in D-U937 cells at 24 hr: 24 hr in 10% FCS
Outline: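 Differentiated U937 cells treated with compound for 4 hr (5% FCS) or 24 hr (10% FCS), then given MTT for 1 hr; formazan dissolved in DMSO and absorbance read at 550 nm. Viability loss expressed as % versus 0.5% DMSO vehicle.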

Chain of recombinant PI3 kinase α (P42336 whole entry, the tested form may be a part): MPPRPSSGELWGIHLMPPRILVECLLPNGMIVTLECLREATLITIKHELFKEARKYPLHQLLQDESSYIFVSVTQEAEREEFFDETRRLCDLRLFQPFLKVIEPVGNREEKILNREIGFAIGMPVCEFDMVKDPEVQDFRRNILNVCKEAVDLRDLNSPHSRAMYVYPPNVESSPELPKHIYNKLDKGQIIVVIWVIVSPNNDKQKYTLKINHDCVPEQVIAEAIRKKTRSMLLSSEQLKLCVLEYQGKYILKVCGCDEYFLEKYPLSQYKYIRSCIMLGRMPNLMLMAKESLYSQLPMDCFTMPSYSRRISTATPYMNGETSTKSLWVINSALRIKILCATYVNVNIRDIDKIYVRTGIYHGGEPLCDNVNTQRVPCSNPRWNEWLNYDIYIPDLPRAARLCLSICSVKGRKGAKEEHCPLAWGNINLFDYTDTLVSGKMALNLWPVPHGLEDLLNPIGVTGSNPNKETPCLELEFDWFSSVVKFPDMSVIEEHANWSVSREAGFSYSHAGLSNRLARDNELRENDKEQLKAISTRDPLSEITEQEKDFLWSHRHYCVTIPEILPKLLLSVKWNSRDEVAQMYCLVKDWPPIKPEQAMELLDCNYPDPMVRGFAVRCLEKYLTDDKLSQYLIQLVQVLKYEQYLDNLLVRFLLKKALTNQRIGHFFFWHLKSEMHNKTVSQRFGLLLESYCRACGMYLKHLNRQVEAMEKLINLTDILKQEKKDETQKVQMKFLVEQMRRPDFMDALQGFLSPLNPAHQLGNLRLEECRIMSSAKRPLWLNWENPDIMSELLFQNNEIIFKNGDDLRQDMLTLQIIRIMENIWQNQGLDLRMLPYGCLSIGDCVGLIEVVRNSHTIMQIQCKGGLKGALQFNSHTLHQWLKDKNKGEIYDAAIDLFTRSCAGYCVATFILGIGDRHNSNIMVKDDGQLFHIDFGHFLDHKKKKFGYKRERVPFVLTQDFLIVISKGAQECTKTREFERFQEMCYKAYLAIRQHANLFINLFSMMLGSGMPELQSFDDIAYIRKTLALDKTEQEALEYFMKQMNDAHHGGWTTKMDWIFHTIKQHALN
Chain of recombinant PI3 kinase α (P27986 whole entry partner, the tested form may be a part): as the sequence (P27986 whole entry partner) above

SMILES: Nc1ncnc2c1c(-c1ccc(O)cc1)nn2Cc1nc2cccc(C#CCCCC(=O)N3CCOCC3)c2c(=O)n1Cc1ccccc1F [Example 53, 2-((4-Amino-3-(4-hydroxyphenyl)-1H-pyrazolo[3,4-d]pyrimidin-1-yl)methyl)-3-(2-fluorobenzyl)-5-(6-morpholino-6-oxohex-1-yn-1-yl)quinazolin-4(3H)-one]
- IC50 (recombinant PI3 kinase α): < 50 nM
- IC50 (recombinant PI3 kinase γ): < 50 nM
- IC50 (recombinant PI3 kinase δ): < 50 nM
- IC50 [1]: < 10 nM
- Cell Viability MTT Assay in D-U937 cells at 4 hr [2]: − (− <30%)
- Cell Viability MTT Assay in D-U937 cells at 24 hr [2]: − (− <30%)

SMILES: COCCNC(=O)CCCC#Cc1cccc2nc(Cn3nc(-c4cccc(O)c4)c4c(N)ncnc43)n(Cc3ccccc3Cl)c(=O)c12 [Example 54, 6-(2-((4-Amino-3-(3-hydroxyphenyl)-1H-pyrazolo[3,4-d]pyrimidin-1-yl)methyl)-3-(2-chlorobenzyl)-4-oxo-3,4-dihydroquinazolin-5-yl)-N-(2-methoxyethyl)hex-5-ynamide]
- IC50 (recombinant PI3 kinase α): < 50 nM
- IC50 (recombinant PI3 kinase γ): < 50 nM
- IC50 (recombinant PI3 kinase δ): < 50 nM
- IC50 [1]: < 10 nM
- Cell Viability MTT Assay in D-U937 cells at 4 hr [2]: − (− <30%)
- Cell Viability MTT Assay in D-U937 cells at 24 hr [2]: − (− <30%)

SMILES: Nc1ncnc2c1c(-c1cccc(O)c1)nn2Cc1nc2cccc(C#CCCCCC(=O)N3CCOCC3)c2c(=O)n1Cc1ccccc1Cl [Example 55, 2-((4-Amino-3-(3-hydroxyphenyl)-1H-pyrazolo[3,4-d]pyrimidin-1-yl)methyl)-3-(2-chlorobenzyl)-5-(7-morpholino-7-oxohept-1-yn-1-yl)quinazolin-4(3H)-one]
- IC50 (recombinant PI3 kinase α): 50 to 1000 nM
- IC50 (recombinant PI3 kinase γ): < 50 nM
- IC50 (recombinant PI3 kinase δ): < 50 nM
- IC50 [1]: < 10 nM
- Cell Viability MTT Assay in D-U937 cells at 4 hr [2]: − (− <30%)
- Cell Viability MTT Assay in D-U937 cells at 24 hr [2]: − (− <30%)

SMILES: Nc1ncnc2c1c(-c1cccc(O)c1)nn2Cc1nc2cccc(C#CCCC(=O)N3CCOCC3)c2c(=O)n1Cc1ccccc1Cl [Example 56]
- IC50 (recombinant PI3 kinase α): < 50 nM
- IC50 (recombinant PI3 kinase γ): < 50 nM
- IC50 (recombinant PI3 kinase δ): < 50 nM
- IC50 [1]: < 10 nM
- Cell Viability MTT Assay in D-U937 cells at 4 hr [2]: − (− <30%)
- Cell Viability MTT Assay in D-U937 cells at 24 hr [2]: − (− <30%)

SMILES: Nc1ncnc2c1c(-c1ccc(O)cc1)nn2Cc1nc2cccc(C#CCCCC(=O)N3CCCCC3)c2c(=O)n1Cc1ccccc1Cl [Example 58, 2-((4-Amino-3-(4-hydroxyphenyl)-1H-pyrazolo[3,4-d]pyrimidin-1-yl)methyl)-3-(2-chlorobenzyl)-5-(6-oxo 6-(piperidin-1-yl)hex-1-yn-1-yl)quinazolin-4(3H)-one]
- IC50 (recombinant PI3 kinase α): 50 to 1000 nM
- IC50 (recombinant PI3 kinase γ): < 50 nM
- IC50 (recombinant PI3 kinase δ): < 50 nM
- IC50 [1]: < 10 nM
- Cell Viability MTT Assay in D-U937 cells at 4 hr [2]: − (− <30%)
- Cell Viability MTT Assay in D-U937 cells at 24 hr [2]: − (− <30%)

SMILES: CCN(CC)C(=O)CCCC#Cc1cccc2nc(Cn3nc(-c4ccc(O)cc4)c4c(N)ncnc43)n(Cc3ccccc3Cl)c(=O)c12 [Example 59, 6-(2-((4-Amino-3-(4-hydroxyphenyl)-1H-pyrazolo[3,4-d]pyrimidin-1-yl)methyl)-3-(2-chlorobenzyl)-4-oxo-3,4-dihydroquinazolin-5-yl)-N,N-diethylhex-5-ynamide]
- IC50 (recombinant PI3 kinase α): 50 to 1000 nM
- IC50 (recombinant PI3 kinase γ): < 50 nM
- IC50 (recombinant PI3 kinase δ): < 50 nM
- IC50 [1]: < 10 nM
- Cell Viability MTT Assay in D-U937 cells at 4 hr [2]: − (− <30%)
- Cell Viability MTT Assay in D-U937 cells at 24 hr [2]: − (− <30%)

SMILES: Nc1ncnc2c1c(-c1cccc(O)c1)nn2Cc1nc2cccc(C#CCCCCC(=O)O)c2c(=O)n1Cc1ccccc1Cl [Example 60, 7-(2-((4-Amino-3-(3-hydroxyphenyl)-1H-pyrazolo[3,4-d]pyrimidin-1-yl)methyl)-3-(2-chlorobenzyl)-4-oxo-3,4-dihydroquinazolin-5-yl)hept-6-ynoic acid]
- IC50 (recombinant PI3 kinase α): 50 to 1000 nM
- IC50 (recombinant PI3 kinase γ): < 50 nM
- IC50 (recombinant PI3 kinase δ): < 50 nM
- IC50 [1]: < 10 nM
- Cell Viability MTT Assay in D-U937 cells at 4 hr [2]: − (− <30%)
- Cell Viability MTT Assay in D-U937 cells at 24 hr [2]: − (− <30%)

SMILES: COc1cc(Cn2c(Cn3nc(-c4ccc(O)cc4)c4c(N)ncnc43)nc3cccc(C#CCCCC(=O)N4CCOCC4)c3c2=O)cc(C(F)(F)F)c1 [Example 62, 2-((4-Amino-3-(4-hydroxyphenyl)-1H-pyrazolo[3,4-d]pyrimidin-1-yl)methyl)-3-(3-methoxy-5-(trifluoromethyl)benzyl)-5-(6-morpholino-6-oxohex-1-yn-1-yl)quinazolin-4(3H)-one]
- IC50 (recombinant PI3 kinase α): 50 to 1000 nM
- IC50 (recombinant PI3 kinase γ): < 50 nM
- IC50 (recombinant PI3 kinase δ): < 50 nM
- IC50 [1]: < 10 nM
- Cell Viability MTT Assay in D-U937 cells at 4 hr [2]: − (− <30%)
- Cell Viability MTT Assay in D-U937 cells at 24 hr [2]: − (− <30%)

SMILES: Nc1ncnc2c1c(-c1ccc(O)cc1)nn2Cc1nc2cccc(C#CCCCC(=O)N3CCOCC3)c2c(=O)n1Cc1cc2ccccc2s1 [Example 63, 2-((4-Amino-3-(4-hydroxyphenyl)-1H-pyrazolo[3,4-d]pyrimidin-1-yl)methyl)-3-(benzo[b]thiophen-2-ylmethyl)-5-(6-morpholino-6-oxohex-1-yn-1-yl)quinazolin-4(3H)-one]
- IC50 (recombinant PI3 kinase α): 50 to 1000 nM
- IC50 (recombinant PI3 kinase γ): < 50 nM
- IC50 (recombinant PI3 kinase δ): < 50 nM
- IC50 [1]: < 10 nM
- Cell Viability MTT Assay in D-U937 cells at 4 hr [2]: − (− <30%)
- Cell Viability MTT Assay in D-U937 cells at 24 hr [2]: − (− <30%)

SMILES: COc1cccc(Cn2c(Cn3nc(-c4ccc(O)cc4)c4c(N)ncnc43)nc3cccc(C#CCCCC(=O)N4CCOCC4)c3c2=O)c1F [Example 64, 2-((4-Amino-3-(4-hydroxyphenyl)-1H-pyrazolo[3,4-d]pyrimidin-1-yl)methyl)-3-(2-fluoro-3-methoxybenzyl)-5-(6-morpholino-6-oxohex-1-yn-1-yl)quinazolin-4(3H)-one]
- IC50 (recombinant PI3 kinase α): 50 to 1000 nM
- IC50 (recombinant PI3 kinase γ): < 50 nM
- IC50 (recombinant PI3 kinase δ): < 50 nM
- IC50 [1]: < 10 nM
- Cell Viability MTT Assay in D-U937 cells at 4 hr [2]: − (− <30%)
- Cell Viability MTT Assay in D-U937 cells at 24 hr [2]: − (− <30%)

More lines, main results first:

- IC50 (recombinant PI3 kinase α): 50 to 1000 nM
- IC50 (recombinant PI3 kinase γ): < 50 nM
- IC50 (recombinant PI3 kinase δ): < 50 nM
- IC50 [1]: < 10 nM
SMILES: COC(=O)c1cccc(Cn2c(Cn3nc(-c4cccc(O)c4)c4c(N)ncnc43)nc3cccc(C#CCCCC(=O)N4CCOCC4)c3c2=O)c1 [Example 65, Methyl 3-((2-((4-amino-3-(3-hyroxyphenyl)-1H-pyrazolo[3,4-d]pyrimidin-1-yl)methyl)-5-(6-morpholino-6-oxohex-1-yn-1-yl)-4-oxoquinazolin-3(4H)-yl)methyl)benzoate]
- Cell Viability MTT Assay in D-U937 cells at 4 hr [2]: − (− <30%)
- Cell Viability MTT Assay in D-U937 cells at 24 hr [2]: − (− <30%)

- IC50 (recombinant PI3 kinase α): 50 to 1000 nM
- IC50 (recombinant PI3 kinase γ): < 50 nM
- IC50 (recombinant PI3 kinase δ): < 50 nM
- IC50 [1]: < 10 nM
SMILES: Cn1cc(Cn2c(Cn3nc(-c4cccc(O)c4)c4c(N)ncnc43)nc3cccc(C#CCCCC(=O)N4CCOCC4)c3c2=O)cn1 [Example 66]
- Cell Viability MTT Assay in D-U937 cells at 4 hr [2]: − (− <30%)
- Cell Viability MTT Assay in D-U937 cells at 24 hr [2]: + (+ >30%)

- IC50 (recombinant PI3 kinase α): 50 to 1000 nM
- IC50 (recombinant PI3 kinase γ): < 50 nM
- IC50 (recombinant PI3 kinase δ): < 50 nM
- IC50 [1]: < 10 nM
SMILES: Nc1ncnc2c1c(-c1cccc(O)c1)nn2Cc1nc2cccc(C#CCCCC(=O)N3CCOCC3)c2c(=O)n1Cc1ccc2occc2c1 [Example 67, 2-((4-Amino-3-(3-hydroxyphenyl)-1H-pyrazolo[3,4-d]pyrimidin-1-yl)methyl)-3-(benzofuran-5-ylmethyl)-5-(6-morpholino-6-oxohex-1-yn-1-yl)quinazolin-4(3H)-one]
- Cell Viability MTT Assay in D-U937 cells at 4 hr [2]: − (− <30%)
- Cell Viability MTT Assay in D-U937 cells at 24 hr [2]: − (− <30%)

- IC50 (recombinant PI3 kinase α): 50 to 1000 nM
- IC50 (recombinant PI3 kinase γ): < 50 nM
- IC50 (recombinant PI3 kinase δ): < 50 nM
- IC50 [1]: < 10 nM
SMILES: Cc1nc(Cn2c(Cn3nc(-c4cccc(O)c4)c4c(N)ncnc43)nc3cccc(C#CCCCC(=O)N4CCOCC4)c3c2=O)cs1 [Example 68, 2-((4-Amino-3-(3-hydroxyphenyl)-1H-pyrazolo[3,4-d]pyrimidin-1-yl)methyl)-3-((2-methylthiazol-4-yl)methyl)-5-(6-morpholino-6-oxohex-1-yn-1-yl)quinazolin-4(3H)-one]
- Cell Viability MTT Assay in D-U937 cells at 4 hr [2]: − (− <30%)
- Cell Viability MTT Assay in D-U937 cells at 24 hr [2]: − (− <30%)

- IC50 (recombinant PI3 kinase α): 50 to 1000 nM
- IC50 (recombinant PI3 kinase γ): < 50 nM
- IC50 (recombinant PI3 kinase δ): < 50 nM
- IC50 [1]: < 10 nM
SMILES: CN1CCN(C(=O)CCCC#Cc2cccc3nc(Cn4nc(-c5cccc(O)c5)c5c(N)ncnc54)n(Cc4ccccc4Cl)c(=O)c23)CC1 [Example 69, 2-((4-Amino-3-(3-hydroxyphenyl)-1H-pyrazolo[3,4-d]pyrimidin-1-yl)methyl)-3-(2-chlorobenzyl)-5-(6-(4-methylpiperazin-1-yl)-6-oxohex-1-yn-1-yl)quinazolin-4(3H)-one]
- Cell Viability MTT Assay in D-U937 cells at 4 hr [2]: + (+ >30%)
- Cell Viability MTT Assay in D-U937 cells at 24 hr [2]: − (− <30%)

- IC50 (recombinant PI3 kinase α): 50 to 1000 nM
- IC50 (recombinant PI3 kinase γ): < 50 nM
- IC50 (recombinant PI3 kinase δ): < 50 nM
- IC50 [1]: < 10 nM
SMILES: Nc1ncnc2c1c(-c1cccc(O)c1)nn2Cc1nc2cccc(C#CCCCC(=O)N3CCC(N4CCOCC4)CC3)c2c(=O)n1Cc1ccccc1Cl [Example 70, 2-((4-Amino-3-(3-hydroxyphenyl)-1H-pyrazolo[3,4-d]pyrimidin-1-yl)methyl)-3-(2-chlorobenzyl)-5-(6-(4-morpholinopiperidin-1-yl)-6-oxohex-1-yn-1-yl)quinazolin-4(3H)-one]
- Cell Viability MTT Assay in D-U937 cells at 4 hr [2]: − (− <30%)
- Cell Viability MTT Assay in D-U937 cells at 24 hr [2]: − (− <30%)
